In PubChem BioAssay (NCI):
Where “and” joins values, the source holds several entries; their conditions need not be identical. Identical values can stand only once.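 Cultured in 96-well plates, cells were exposed to test compound for 48 hours across five concentrations. Abbreviation: GI50, concentration required for 50% inhibition of growth. TGI: total growth inhibition.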 *1 amine or outer side, *2 acyl side, *3 side chain or, on linkers, in order; H or OH if unused. Where a SMILES comes first, the peptide text is derived from it. [ ]: non-standard residue; d: D form. The star is where a group is joined. X11 = C/C=C/CC(C)C(O)[C@H](N[*:1])C(=O)[*:2]; Decanoyl = CCCCCCCCCC(=O)*; Leu(ol) = CC(C)C[C@H](N)CO; Iva = CC[C@](C)(N)C(=O)O; Aib = CC(C)(N)C(=O)O

Test system: MDA-MB-468 breast
Experiment: DTP human tumour cell line panel, 48 h

Point of comparison: O=C(/C=C/C=C/c1ccccc1)c1ccco1, GI50 5 µM. Against it:
- Cn1cc(C2=C(c3c[nH]c4ccccc34)C(=O)NC2=O)c2ccccc21 — 11-fold lower, 0.47 µM
- CC/C(Cc1ccccc1)=C(\c1ccc(OCCN2CCCC2)cc1)c1ccc(OC(=O)NCc2ccccc2)cc1 — 2.5-fold lower, 1.99 µM
- COc1cccc2cc(N(C)c3nc(C)nc4c3CCC4)ccc12 — lower, < 0.01 µM
- COc1ccccc1S(=O)(=O)Nc1ccc2c3c(cc(CCC(=O)NCCCCNc4cccc5c4C(=O)N(C4CCC(=O)NC4=O)C5=O)cc13)C(=O)N2C (centres undefined) — 230-fold lower, 0.0217 µM
- O=C(NCC(F)(F)F)Nc1cccc(-c2cnc3cc(-c4ccc(F)cc4)ccn23)c1 — 15-fold lower, 0.339 µM
- CCCCCCSSC(=S)N(CC)CC — 6-fold higher, 29.9 µM
- C[C@@H]1CCC/C=C/[C@H]2C[C@@H](O)C[C@@H]2[C@@H](O)/C=C/C(=O)O1 — 77-fold lower, 0.0648 µM
- Cc1ccc(-c2nc(/C=N/Nc3cc(C)nc4ccc(Cl)cc34)c(C)o2)cc1 — 2.9-fold lower, 1.73 µM
- COc1ccc(-c2nc(-c3nc4ccc(C)cc4[nH]3)cc3c2[nH]c2ccccc23)cc1 — 1.9-fold lower, 2.69 µM
- CNCCN(C)c1ccc(Nc2cc(NC3CC3)n3ncc(C#N)c3n2)cc1NC(C)=O — lower, < 0.0106 µM
- Cc1c(C#N)cccc1[C@@H](C)Nc1nnc(C)c2cnc(N3CCOCC3)cc12 — 1.5-fold higher, 7.63 µM
- COc1cc(OC)cc(C2C3=C(COC3=O)Nc3cc(OC)ccc32)c1 (centres undefined) — lower, < 0.01 µM
- C#C[C@@]1(O)[C@@H](CO)O[C@@H](n2cc(I)c3c(N)ncnc32)[C@@H]1O — 33-fold lower, 0.153 µM
- Cc1cc(C)c(C#N)c(Sc2nc(C)c([N+](=O)[O-])c(C)c2C#N)n1 — 3-fold lower, 1.65 µM
- N#CC1=C(N)Oc2c(ccc3ccccc23)C1c1cc(=O)oc2ccc(Cl)cc12 (centres undefined) — 9.6-fold lower, 0.52 µM
- O=C1CSC(c2ccccc2Cl)N1c1nnc(Cn2cnnc2)o1 (centres undefined) — within 1.5-fold, 3.85 µM
- NC(=O)c1ccc(Oc2nccc(-c3c(-c4ccc(F)cc4)ncn3C3CCNCC3)n2)cc1 — within 1.5-fold, 7.4 µM
- O=C(NCCCc1cn[nH]c1)c1ccc(-c2ccncc2)c(C#Cc2ccc(F)cc2)c1 — 2.3-fold lower, 2.14 µM
- CS(=O)(=O)Nc1cccc(-c2ccc3ncnc(Nc4ccc(F)c(Cl)c4)c3c2)c1 — 46-fold lower, 0.108 µM
- CN=C1C=CC(=C(c2ccc(N(C)C)cc2)c2ccc(N(C)C)cc2)C=C1 — 28-fold lower, 0.178 µM
- CNCCCNc1nc2ccccc2c2c(=O)c3cc(OC)ccc3sc12 — 2.8-fold lower, 1.76 µM
- COC(=O)N1CCN(CCNCc2ccc(NC(=O)c3ccc(C)c(C#Cc4cnc5cccnn45)c3)cc2C(F)(F)F)CC1 — 3.2-fold lower, 1.58 µM
- CS(=O)(=O)c1ccc(Nc2nc(N[C@H]3CCCC[C@H]3N)nc3cc[nH]c(=O)c23)cc1 — 15-fold lower, 0.338 µM
- COc1ccc(C(=O)/C=C/c2cc(-c3cc(OC)c(OC)c(OC)c3)n[nH]2)cc1 — 3.9-fold lower, 1.29 µM
- CCN(CC)CCCC(C)Nc1cc(-c2cccc(OC(F)(F)F)c2)nc2ccc(N3CCCC3)cc12 (centres undefined) — 110-fold lower, 0.0435 µM
- CSc1nc2nc3c(nc2c(=O)n1C)C(=O)c1ccccc1C3=O — 36-fold lower, 0.14 µM
- CC(C)N(Cc1ccc(CN(C(=O)CCl)C(C)C)cc1)C(=O)CCl — 2.9-fold lower, 1.74 µM
- C/C=C/CC(C)C(O)[C@H](NC(=O)[C@@H]1CCCN1C(=O)[C@](C)(CC)NC(=O)CCCCCCCCC)C(=O)N[C@@](C)(CC)C(=O)N[C@@H](CCC(N)=O)C(=O)N[C@H](CCC(N)=O)C(=O)NC(C)(C)C(=O)NC(C)(C)C(=O)N[C@@H](CCC(N)=O)C(=O)N[C@H](CC(C)C)C(=O)N[C@H](CO)CC(C)C (stereo partly drawn) (Decanoyl-[Iva]P[X11][Iva]Q[dQ][Aib][Aib]Q[dL][Leu(ol)]) — 2.8-fold lower, 1.78 µM
- NS(=O)(=O)c1ccc(Nc2nc(N/N=C/c3ccc(C(F)(F)F)cc3)nc(Nc3ccccc3)n2)cc1 — 2.9-fold lower, 1.73 µM
- COc1cc(C2C3=C(COC3=O)N(CCO)c3cc4c(cc32)OCCO4)cc(OC)c1OC (centres undefined) — 47-fold lower, 0.106 µM
- O=C1/C(=C/c2ccc(F)cc2)CN(C(=O)CCN2CCC(=NO)CC2)C/C1=C\c1ccc(F)cc1 — 2.9-fold lower, 1.73 µM
- CC(=O)N1CCN(CCNC(=O)n2cc(-c3ccncc3)c(-c3cc(O)cc(Cl)c3)n2)CC1 — within 1.5-fold, 4.59 µM
- CN(C)CCCn1c(=O)c2ccccc2c2cnc3[nH]ccc3c21 — 10-fold lower, 0.493 µM
- c1ccc(OCCC[P+](c2ccccc2)(c2ccccc2)c2ccccc2)cc1 — 22-fold lower, 0.23 µM
- COc1ccc(C(=O)c2cc(C)c(OC)c(C)c2)c(OC)c1NC(C)=O — 31-fold lower, 0.159 µM
- C#Cc1cccc(Nc2nc(Cl)nc3cc(NC(=O)CCl)ccc23)c1 — 10-fold lower, 0.5 µM
- O=C(NC(=O)c1c(Cl)nc2sccn12)Nc1ccc(Cl)cc1 — within 1.5-fold, 3.95 µM
- Clc1ccc(-c2c3ccc(=[N+]4CCCCC4)cc-3oc3cc(N4CCCCC4)ccc23)cc1 — 48-fold lower, 0.104 µM

Point of comparison: CN(C)CCCn1c(=O)c2ccccc2c2cnc3[nH]ccc3c21, TGI 2.53 µM. Against it:
- Cn1cc(C2=C(c3c[nH]c4ccccc34)C(=O)NC2=O)c2ccccc21 — higher, > 25 µM
- CC/C(Cc1ccccc1)=C(\c1ccc(OCCN2CCCC2)cc1)c1ccc(OC(=O)NCc2ccccc2)cc1 — 1.6-fold higher, 3.93 µM
- COc1cccc2cc(N(C)c3nc(C)nc4c3CCC4)ccc12 — 8.1-fold higher, 20.5 µM
- COc1ccccc1S(=O)(=O)Nc1ccc2c3c(cc(CCC(=O)NCCCCNc4cccc5c4C(=O)N(C4CCC(=O)NC4=O)C5=O)cc13)C(=O)N2C (centres undefined) — 29-fold lower, 0.0872 µM
- O=C(NCC(F)(F)F)Nc1cccc(-c2cnc3cc(-c4ccc(F)cc4)ccn23)c1 — within 1.5-fold, 1.93 µM
- CCCCCCSSC(=S)N(CC)CC — higher, > 100 µM
- C[C@@H]1CCC/C=C/[C@H]2C[C@@H](O)C[C@@H]2[C@@H](O)/C=C/C(=O)O1 — 2-fold higher, 5.03 µM
- Cc1ccc(-c2nc(/C=N/Nc3cc(C)nc4ccc(Cl)cc34)c(C)o2)cc1 — within 1.5-fold, 3.26 µM
- COc1ccc(-c2nc(-c3nc4ccc(C)cc4[nH]3)cc3c2[nH]c2ccccc23)cc1 — 9.9-fold higher, 25 µM
- CNCCN(C)c1ccc(Nc2cc(NC3CC3)n3ncc(C#N)c3n2)cc1NC(C)=O — 40-fold lower, 0.0626 µM
- Cc1c(C#N)cccc1[C@@H](C)Nc1nnc(C)c2cnc(N3CCOCC3)cc12 — 15-fold higher, 38.1 µM
- COc1cc(OC)cc(C2C3=C(COC3=O)Nc3cc(OC)ccc32)c1 (centres undefined) — lower, < 0.0122 µM
- C#C[C@@]1(O)[C@@H](CO)O[C@@H](n2cc(I)c3c(N)ncnc32)[C@@H]1O — 4.5-fold lower, 0.561 µM
- Cc1cc(C)c(C#N)c(Sc2nc(C)c([N+](=O)[O-])c(C)c2C#N)n1 — within 1.5-fold, 3.77 µM
- N#CC1=C(N)Oc2c(ccc3ccccc23)C1c1cc(=O)oc2ccc(Cl)cc12 (centres undefined) — 13-fold higher, 33 µM
- O=C1CSC(c2ccccc2Cl)N1c1nnc(Cn2cnnc2)o1 (centres undefined) — 6.8-fold higher, 17.2 µM
- NC(=O)c1ccc(Oc2nccc(-c3c(-c4ccc(F)cc4)ncn3C3CCNCC3)n2)cc1 — higher, > 25 µM
- O=C(NCCCc1cn[nH]c1)c1ccc(-c2ccncc2)c(C#Cc2ccc(F)cc2)c1 — 5.1-fold higher, 12.8 µM
- CS(=O)(=O)Nc1cccc(-c2ccc3ncnc(Nc4ccc(F)c(Cl)c4)c3c2)c1 — 2.9-fold lower, 0.86 µM
- CN=C1C=CC(=C(c2ccc(N(C)C)cc2)c2ccc(N(C)C)cc2)C=C1 — 4.7-fold lower, 0.539 µM
- CNCCCNc1nc2ccccc2c2c(=O)c3cc(OC)ccc3sc12 — within 1.5-fold, 3.47 µM
- O=C(/C=C/C=C/c1ccccc1)c1ccco1 — 9.9-fold higher, 25.1 µM
- COC(=O)N1CCN(CCNCc2ccc(NC(=O)c3ccc(C)c(C#Cc4cnc5cccnn45)c3)cc2C(F)(F)F)CC1 — within 1.5-fold, 3.2 µM
- CS(=O)(=O)c1ccc(Nc2nc(N[C@H]3CCCC[C@H]3N)nc3cc[nH]c(=O)c23)cc1 — 1.7-fold lower, 1.46 µM
- COc1ccc(C(=O)/C=C/c2cc(-c3cc(OC)c(OC)c(OC)c3)n[nH]2)cc1 — within 1.5-fold, 2.65 µM
- CCN(CC)CCCC(C)Nc1cc(-c2cccc(OC(F)(F)F)c2)nc2ccc(N3CCCC3)cc12 (centres undefined) — 17-fold higher, 44 µM
- CSc1nc2nc3c(nc2c(=O)n1C)C(=O)c1ccccc1C3=O — 7.2-fold lower, 0.352 µM
- CC(C)N(Cc1ccc(CN(C(=O)CCl)C(C)C)cc1)C(=O)CCl — 1.6-fold higher, 3.94 µM
- C/C=C/CC(C)C(O)[C@H](NC(=O)[C@@H]1CCCN1C(=O)[C@](C)(CC)NC(=O)CCCCCCCCC)C(=O)N[C@@](C)(CC)C(=O)N[C@@H](CCC(N)=O)C(=O)N[C@H](CCC(N)=O)C(=O)NC(C)(C)C(=O)NC(C)(C)C(=O)N[C@@H](CCC(N)=O)C(=O)N[C@H](CC(C)C)C(=O)N[C@H](CO)CC(C)C (stereo partly drawn) (Decanoyl-[Iva]P[X11][Iva]Q[dQ][Aib][Aib]Q[dL][Leu(ol)]) — within 1.5-fold, 3.38 µM
- NS(=O)(=O)c1ccc(Nc2nc(N/N=C/c3ccc(C(F)(F)F)cc3)nc(Nc3ccccc3)n2)cc1 — 1.5-fold higher, 3.87 µM
- COc1cc(C2C3=C(COC3=O)N(CCO)c3cc4c(cc32)OCCO4)cc(OC)c1OC (centres undefined) — 7.9-fold lower, 0.319 µM
- O=C1/C(=C/c2ccc(F)cc2)CN(C(=O)CCN2CCC(=NO)CC2)C/C1=C\c1ccc(F)cc1 — 1.9-fold higher, 4.72 µM
- CC(=O)N1CCN(CCNC(=O)n2cc(-c3ccncc3)c(-c3cc(O)cc(Cl)c3)n2)CC1 — 8.2-fold higher, 20.8 µM
- c1ccc(OCCC[P+](c2ccccc2)(c2ccccc2)c2ccccc2)cc1 — 1.7-fold lower, 1.49 µM
- C#Cc1cccc(Nc2nc(Cl)nc3cc(NC(=O)CCl)ccc23)c1 — 2.2-fold lower, 1.17 µM
- O=C(NC(=O)c1c(Cl)nc2sccn12)Nc1ccc(Cl)cc1 — 14-fold higher, 35.7 µM
- Clc1ccc(-c2c3ccc(=[N+]4CCCCC4)cc-3oc3cc(N4CCCCC4)ccc23)cc1 — 9.7-fold lower, 0.261 µM

With COc1ccc(-c2cc3c(C)nc(N)nc3n(C3CCC(OCCO)CC3)c2=O)cn1 (centres undefined) the GI50 was 0.0417 µM and 0.0323 µM.

COc1ccc(-c2cc3c(C)nc(N)nc3n(C3CCC(OCCO)CC3)c2=O)cn1 (centres undefined) was tested, and the TGI was 0.27 µM and 0.256 µM.
